*1 amine or outer side, *2 acyl side, *3 side chain or, on linkers, in order; H or OH if unused. Where a SMILES comes first, the peptide text is derived from it. Bridges are numbered along the chain shown (N, C = ends). Roman numbers before positions name the chains, in order. [ ]: non-standard residue; d: D form. Actinocin(9to1) = Cc1c2oc3c(C)ccc(C(=O)[*:1])c3nc-2c(C(=O)[*:2])c(N)c1=O; NMeV = CN[C@H](C(=O)O)C(C)C; Sar = CNCC(=O)O
What was measured:
[1] = tested on: human mesothelial (HM) cells; test: HMGB1 localization in HM cells by immunofluorescence staining; format: cell-based; settings: 6 hrs exposure; H2O2 100 μM, actinomycin D 0.1 μM
Procedure: After fixation and permeabilization, cells were incubated with HMGB1 antibody (BD Bioscience Pharmingen) and a fluorescein-conjugated secondary antibody (Chemicon, Temecula). Nuclei were stained with DAPI.

macrophages = test: TNF-α secretion by macrophages given culture medium from exposed HM; format: cell-based, human; settings: concentrated HM culture medium added to macrophages
Procedure: Expression levels of HMGB1 and its receptors RAGE, TLR2 and TLR4 in a panel of 8 MM cell lines and 8 distinct primary HM cultures were determined Primary human mesothelial cells (HM) were obtained from pleural effusions of eight different patients, pathologically diagnosed free of malignancy at the Queen's Medical Center, Honolulu, Hi. […] HM were cultured in Dulbecco's Modified Eagle Medium (DMEM) (Mediatech Inc., Manassas, Va.) containing 20% fetal bovine serum (FBS) (Gibco, Carlsbad, Calif.) and penicillin-streptomycin (100 units/ml penicillin G and 100 μg/ml streptomycin sulfate) (GIBCO), and were used between second and fifth passages. THP-1 human monocytes (ATCC, Manassas, Va.) were differentiated into macrophages by phorbol 12-myristate 13-acetate (TPA). The pleural malignant mesothelioma (MM) cell lines were established from surgically resected human MM specimens and used comparatively in our studies. REN cells were provided by Dr. Steven Albelda (University of Pennsylvania, Philadelphia, Pa.), while all other cell lines used in this study were provided by Dr. Harvey I. Pass (NYU School of Medicine, New York, N.Y.). MM cells were maintained in DMEM containing 10% FBS. All cells were cultured at 37° C. in a humidified atmosphere with 5% CO2 and grown to approximately 80-90% confluency. […]
Next, it was determined whether the release of HMGB1 was linked to an inflammatory response. […]

Row | Compound | HMGB1 localization in HM cells [1] | macrophage secretion of TNF-α induced by culture medium from HM exposed to the substance (macrophages)
1 | OO [H2O2] | translocated from the nucleus into the cytosol | –
2 | Cc1c2oc3c(C)ccc(C(=O)N[C@@H]4C(=O)N[C@H](C(C)C)C(=O)N5CCC[C@H]5C(=O)N(C)CC(=O)N(C)[C@@H](C(C)C)C(=O)O[C@@H]4C)c3nc-2c(C(=O)N[C@@H]2C(=O)N[C@H](C(C)C)C(=O)N3CCC[C@H]3C(=O)N(C)CC(=O)N(C)[C@@H](C(C)C)C(=O)O[C@@H]2C)c(N)c1=O [actinomycin D] (I: T[dV]P[Sar][NMeV] / II: T[dV]P[Sar][NMeV]; ester I:1-I:C, II:1-II:C; linker I:N-II:N via Actinocin(9to1)) | remained within the nucleus | did not induce TNF-α secretion

— US9244074B2 (University of Hawaii, priority 2011, dated 2016)
